Results: the C3SDB collision cross section collection
Each block holds one molecule with its values, some of them ahead of it.

Conditions: instrument: TW, calibrated with polyalanine and drug standards

Compound: OCC(O)CN1CCN(c2ccccc2)CC1 (stereo not given) [DROPROPIZINE]
collision cross section (N2) ([M+H]+): 155.7 Å²

Compound: Cn1c(=O)c2c(ncn2CC(O)CO)n(C)c1=O (stereo not given) [DYPHYLLINE]
collision cross section (N2) ([M+H]+): 152.6 Å²

Compound: CC[C@H]1CN2CCc3cc(OC)c(OC)cc3[C@@H]2C[C@@H]1C[C@H]1NCCc2cc(OC)c(OC)cc21 [EMETINE]
collision cross section (N2) ([M+H]+): 219.6 Å²

Compound: Oc1cc(O)c2c(c1)O[C@H](c1ccc(O)c(O)c1)[C@H](O)C2 [EPICATECHIN]
collision cross section (N2) ([M+H]+): 161.5 Å²

Compound: C[C@]12CC[C@H]3[C@@H](CCC4=CC(=O)CC[C@@]43C)[C@@H]1CC[C@H]2O [EPITESTOSTERONE]
collision cross section (N2) ([M+H]+): 170.7 Å²

Compound: CN1CC[C@@]2(C)c3cc(O)ccc3N(C)[C@@H]12 [ESEROLINE]
collision cross section (N2) ([M+H]+): 149.1 Å²

Compound: CCOc1ccc2nc(S(N)(=O)=O)sc2c1 [ETHOXZOLAMIDE]
collision cross section (N2) ([M+H]+): 152.7 Å²

Compound: C=C(C)c1cc2cc(C(C)=O)c(O)cc2o1 [EUPARIN]
collision cross section (N2) ([M+H]+): 143.2 Å²

Compound: COc1c2ccoc2nc2c(OC)c(OCC(O)C(C)(C)O)ccc12 (stereo not given) [EVOXINE]
collision cross section (N2) ([M+H]+): 181.4 Å²

Compound: CCCCCCOc1ccccc1C(N)=O [EXALAMIDE]
collision cross section (N2) ([M+H]+): 154.6 Å²

Compound: C=C1C[C@@H]2[C@H](CC[C@]3(C)C(=O)CC[C@@H]23)[C@@]2(C)C=CC(=O)C=C12 [EXEMESTANE]
collision cross section (N2) ([M+H]+): 171.1 Å²

Compound: NC(N)=Nc1nc(CSCC/C(N)=N/S(N)(=O)=O)cs1 [FAMOTIDINE]
collision cross section (N2) ([M+H]+): 167.2 Å²

Compound: Nc1ccncc1 [FAMPRIDINE]
collision cross section (N2) ([M+H]+): 117.8 Å²

Compound: CC(C)OC(=O)C(C)(C)Oc1ccc(C(=O)c2ccc(Cl)cc2)cc1 [FENOFIBRATE]
collision cross section (N2) ([M+H]+): 190.5 Å²

Compound: CCC(=O)c1c(O)cc(O)cc1O [FLOPROPIONE]
collision cross section (N2) ([M+H]+): 134.3 Å²

Compound: CS(=O)(=O)c1ccc([C@@H](O)[C@@H](CF)NC(=O)C(Cl)Cl)cc1 [FLORFENICOL]
collision cross section (N2) ([M+Na]+): 170.7 Å²

Compound: O=C1OC2(c3ccc(O)cc3Oc3cc(O)ccc32)c2ccccc21 [FLUORESCEIN]
collision cross section (N2) ([M+H]+): 172.3 Å²

Compound: CNCCC(Oc1ccc(C(F)(F)F)cc1)c1ccccc1 (stereo not given) [FLUOXETINE]
collision cross section (N2) ([M+H]+): 174.5 Å²

Compound: CC(C)n1c(/C=C/[C@@H](O)C[C@@H](O)CC(=O)O)c(-c2ccc(F)cc2)c2ccccc21 [FLUVASTATIN]
collision cross section (N2) ([M+H]+): 200.6 Å²

Compound: Nc1nc(=O)c2nc(CNc3ccc(C(=O)N[C@@H](CCC(=O)O)C(=O)O)cc3)cnc2[nH]1 [FOLIC ACID]
collision cross section (N2) ([M+H]+): 196.8 Å²

Compound: NCC1(CC(=O)O)CCCCC1 [GABAPENTIN]
collision cross section (N2) ([M+H]+): 138.6 Å²

Compound: O=c1c(-c2ccc(O)cc2)coc2cc(O)cc(O)c12 [GENISTEIN]
collision cross section (N2) ([M+H]+): 156.5 Å²

Compound: O=C(OCC(O)CO)c1ccccc1Nc1ccnc2cc(Cl)ccc12 (stereo not given) [GLAFENINE]
collision cross section (N2) ([M+H]+): 187.3 Å²

Compound: COc1ccc2c(c1)=NC1=C(C)NCCC=21 [HARMALINE]
collision cross section (N2) ([M+H]+): 146.2 Å²

Compound: O=c1cc(-c2cc(O)c(O)c(O)c2)oc2cc(O)cc(O)c12 [HIERACIN]
collision cross section (N2) ([M+H]+): 163.4 Å²

Compound: C/C=C1\[C@H]2C=C(C)C[C@]1(N)c1ccc(=O)[nH]c1C2 [HUPERZINE A]
collision cross section (N2) ([M+H]+): 157.7 Å²

Compound: COc1ccc2c(c1OC)C(=O)O[C@@H]2[C@H]1c2cc3c(cc2CCN1C)OCO3 [HYDRASTINE (1R, 9S)]
collision cross section (N2) ([M+H]+): 186.3 Å²

Compound: CN1[C@@H]2CC[C@H]1CC(OC(=O)[C@H](CO)c1ccccc1)C2 (stereo not given in full) [HYOSCYAMINE]
collision cross section (N2) ([M+H]+): 169.7 Å²

Compound: CC1Cc2ccccc2N1NC(=O)c1ccc(Cl)c(S(N)(=O)=O)c1 (stereo not given) [INDAPAMIDE]
collision cross section (N2) ([M+H]+): 184.6 Å²

Compound: O=c1c(-c2cc(O)c(O)c(O)c2)coc2cc(O)c(O)c(O)c12 [IRIGENOL]
collision cross section (N2) ([M+H]+): 166.5 Å²

Compound: NNC(=O)c1ccncc1 [ISONIAZID]
collision cross section (N2) ([M+H]+): 125.6 Å²

Compound: COc1cc(O)ccc1C(C)=O [ISOPEONOL]
collision cross section (N2) ([M+H]+): 128.6 Å²

Compound: COc1c2ccoc2c(OC)c2oc(=O)ccc12 [ISOPIMPINELLIN]
collision cross section (N2) ([M+H]+): 146.5 Å²

Compound: COc1ccc(-c2coc3c(OC)c(OC)cc(O)c3c2=O)cc1 [ISOTECTORIGENIN, 7-METHYL ETHER]
collision cross section (N2) ([M+H]+): 171.9 Å²

Compound: C=C(C)[C@H]1CN[C@H](C(=O)O)[C@H]1CC(=O)O [KAINIC ACID]
collision cross section (N2) ([M+H]+): 144.2 Å²

Compound: COc1ccc(-c2coc3cc(O)ccc3c2=O)c(O)c1O [KOPARIN]
collision cross section (N2) ([M+H]+): 162.1 Å²

Compound: COc1c(O)cc2c(-c3ccccc3)cc(=O)oc2c1OC [KUHLMANNIN]
collision cross section (N2) ([M+H]+): 165.6 Å²

Compound: CCCCS(=N)(=O)CC[C@H](N)C(=O)O (stereo partly drawn) [L-BUTHIONINE SULFOXIMINE]
collision cross section (N2) ([M+H]+): 146.1 Å²

Compound: O=C(O)[C@H](O)[C@@H](O)[C@H](O[C@@H]1O[C@H](CO)[C@H](O)[C@H](O)[C@H]1O)[C@H](O)CO [LACTOBIONIC ACID]
collision cross section (N2) ([M+H]+): 168.7 Å²

Compound: Cc1occc(=O)c1O [LARIXINIC ACID]
collision cross section (N2) ([M+H]+): 117.7 Å²

Now from value to molecule:

collision cross section (N2) ([M+H]+): 227 Å²
Compound: COc1cccc2c1C(=O)c1c(O)c3c(c(O)c1C2=O)C[C@@](O)(C(=O)CO)C[C@@H]3O[C@H]1C[C@H](N)[C@H](O)[C@H](C)O1 [DOXORUBICIN]

collision cross section (N2) ([M+H]+): 213.9 Å²
Compound: CC1(C)[C@@H](O)CC[C@]2(C)[C@H]3C(=O)C=C4[C@@H]5C[C@@](C)(C(=O)O)CC[C@]5(C)CC[C@@]4(C)[C@]3(C)CC[C@@H]12 [ENOXOLONE]

collision cross section (N2) ([M+H]+): 207.3 Å²
Compound: CC(=O)Oc1cc(OC(C)=O)c2c(c1)O[C@H](c1ccc(OC(C)=O)c(OC(C)=O)c1)[C@H](OC(C)=O)C2 [EPICATECHIN PENTAACETATE]

collision cross section (N2) ([M+H]+): 153.6 Å²
Compound: C[C@]12CC[C@@H]3c4ccc(O)cc4CC[C@H]3[C@@H]1C[C@H](O)[C@@H]2O [EPIESTRIOL]

collision cross section (N2) ([M+H]+): 258.1 Å²
Compound: CC[C@H]1OC(=O)[C@H](C)[C@@H](O[C@H]2C[C@@](C)(OC)[C@@H](O)[C@H](C)O2)[C@H](C)[C@@H](O[C@@H]2O[C@H](C)C[C@H](N(C)C)[C@H]2O)[C@](C)(O)C[C@@H](C)C(=O)[C@H](C)[C@@H](O)[C@]1(C)O [ERYTHROMYCIN]

collision cross section (N2) ([M+H]+): 171 Å²
Compound: CCCCC(=O)O[C@H]1CC[C@H]2[C@@H]3CCc4cc(O)ccc4[C@H]3CC[C@]12C [ESTRADIOL VALERATE]

collision cross section (N2) ([M+H]+): 200.5 Å²
Compound: CC1=C(/C=C/C(C)=C/C=C/C(C)=C/C(=O)Nc2ccc(O)cc2)C(C)(C)CCC1 [FENRETINIDE]

collision cross section (N2) ([M+H]+): 149.8 Å²
Compound: CC1CCc2cc(F)cc3c(=O)c(C(=O)O)cn1c23 (stereo not given) [FLUMEQUINE]

collision cross section (N2) ([M+H]+): 189.2 Å²
Compound: C[C@@H]1C[C@H]2[C@@H]3C[C@H](F)C4=CC(=O)C=C[C@]4(C)[C@@]3(F)[C@@H](O)C[C@]2(C)[C@@]1(O)C(=O)CO [FLUMETHASONE]

collision cross section (N2) ([M+H]+): 199.7 Å²
Compound: CC1(C)O[C@@H]2C[C@H]3[C@@H]4C[C@H](F)C5=CC(=O)C=C[C@]5(C)[C@@]4(F)[C@@H](O)C[C@]3(C)[C@]2(C(=O)CO)O1 [FLUOCINOLONE ACETONIDE]

collision cross section (N2) ([M+H]+): 229.9 Å²
Compound: CC(=O)OCC(=O)[C@@]12OC(C)(C)O[C@@H]1C[C@H]1[C@@H]3C[C@H](F)C4=CC(=O)C=C[C@]4(C)[C@@]3(F)[C@@H](O)C[C@@]12C [FLUOCINONIDE]

collision cross section (N2) ([M+H]+): 201.2 Å²
Compound: CC1(C)O[C@@H]2C[C@H]3[C@@H]4C[C@H](F)C5=CC(=O)CC[C@]5(C)[C@H]4[C@@H](O)C[C@]3(C)[C@]2(C(=O)CO)O1 [FLURANDRENOLIDE]

collision cross section (N2) ([M+Na]+): 235.6 Å²
Compound: CC(=O)O[C@H]1C[C@@]2(C)[C@@H](C[C@@H](O)[C@H]3[C@@]4(C)CC[C@@H](O)[C@@H](C)[C@@H]4CC[C@@]32C)/C1=C(\CCC=C(C)C)C(=O)O [FUSIDIC ACID]

collision cross section (N2) ([M+H]+): 245.7 Å²
Compound: CC(C)=CCCC1(C)C=Cc2c(O)c3c(c(CC=C(C)C)c2O1)OC12C(=CCCC1C(C)(C)O[C@@]2(C/C=C(\C)C(=O)O)C(=O)O)C3=O (stereo not given in full) [GARCINOLIC ACID]

collision cross section (N2) ([M+H]+): 205.7 Å²
Compound: CC(=O)O[C@@H]1C[C@H]2C(C)(C)C(=O)C=C[C@]2(C)[C@H]2CC[C@@]3(C)[C@H](c4ccoc4)OC(=O)[C@H]4O[C@]43[C@@]21C [GEDUNIN]

collision cross section (N2) ([M+H]+): 196.5 Å²
Compound: Cc1cnc(C(=O)NCCc2ccc(S(=O)(=O)NC(=O)NC3CCCCC3)cc2)cn1 [GLIPIZIDE]

collision cross section (N2) ([M+H]+): 223.4 Å²
Compound: CC(=O)O[C@H]1CC[C@@]2(C)[C@@H](CC[C@@H]3[C@@H]2CC(=O)[C@]2(C)[C@@H]4[C@H](C[C@@H]32)O[C@]2(CC[C@@H](C)CO2)[C@H]4C)C1 [HECOGENIN ACETATE]

collision cross section (N2) ([M+H]+): 349.1 Å²
Compound: C[C@@H]1O[C@@H](O[C@H]2[C@H](O[C@H]3CC[C@@]4(C)[C@@H](CC[C@]5(C)[C@@H]4CC=C4[C@@H]6CC(C)(C)CC[C@]6(C(=O)O[C@@H]6O[C@H](CO[C@@H]7O[C@H](CO)[C@@H](O[C@@H]8O[C@@H](C)[C@H](O)[C@@H](O)[C@H]8O)[C@H](O)[C@H]7O)[C@@H](O)[C@H](O)[C@H]6O)CC[C@]45C)[C@]3(C)CO)OC[C@H](O)[C@@H]2O)[C@H](O)[C@H](O)[C@H]1O [HEDERACOSIDE C]

collision cross section (N2) ([M+H]+): 149.5 Å²
Compound: C=C1C(=O)O[C@@H]2C[C@@]3(C)CCC[C@H](C)C3=C[C@H]12 [HELENINE]

collision cross section (N2) ([M+H]+): 162.5 Å²
Compound: O=C1C=C2CC3(O)COc4c(ccc(O)c4O)C3=C2C=C1O (stereo not given) [HEMATEIN]

collision cross section (N2) ([M+H]+): 196.1 Å²
Compound: CC(=O)OCC(=O)[C@@]1(O)CC[C@H]2[C@@H]3CCC4=CC(=O)CC[C@]4(C)[C@H]3[C@@H](O)C[C@@]21C [HYDROCORTISONE ACETATE]

collision cross section (N2) ([M+H]+): 194.7 Å²
Compound: CC(=O)OCC(=O)[C@@]1(O)CCC2C3CCC4=CC(=O)C=C[C@]4(C)[C@@]3(F)[C@@H](O)C[C@@]21C (stereo not given in full) [ISOFLUPREDNONE ACETATE]

collision cross section (N2) ([M+H]+): 146.3 Å²
Compound: CC1(C)C[C@@H]2C(=O)CC[C@H]3O[C@]3(C)CC[C@H]21 [KOBUSONE]

collision cross section (N2) ([M+H]+): 171.2 Å²
Compound: C[C@@H]1CC[C@H]2[C@](C)(CO)[C@@H](O)CC[C@]2(C)[C@@]12CC[C@@](CO)(CCO)O2 [LAGOCHILIN]

collision cross section (N2) ([M+H]+): 176.2 Å²
Compound: C=C[C@@](C)(O)CCC1C(=C)C[C@H](O)C2C(C)(C)CCCC12C (stereo not given in full) [LARIXOL]
